Assay results published in patent US9073876B2, “Flap modulators” (JANSSEN PHARMACEUTICA NV, priority 2013, dated 2015).

Legend:
[1] = tested on: leukotriene pathway in human whole blood (LTB4 levels); experiment: Human whole blood assay (LTB4); assay type: cell-based; settings: human whole blood diluted 1:1 in RPMI, stimulated with calcium ionophore A23187; single replicate
How it was run: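 Heparinised human whole blood diluted 1:1 in RPMI, pre-incubated 15 min at 37° Celsius with compound, then stimulated with A23187 (7 μg/mL) for 30 min at 37° Celsius. Plasma LTB4 measured by immunoassay kit; IC50 from 4-parameter fit; single replicate per plate, at least one healthy donor.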

human FLAP = human FLAP (Homo sapiens (Human), UniProt P20292); experiment: FLAP binding assay (HTRF); settings: human FLAP-containing membranes, HTRF format; average of two assay plates, duplicates; read-out: FLAP Binding wild type HTRF Ki
How it was run: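 Averaged over two plates (duplicate wells per plate); output given as HTRF ratio.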

Chain of human FLAP (P20292 whole entry): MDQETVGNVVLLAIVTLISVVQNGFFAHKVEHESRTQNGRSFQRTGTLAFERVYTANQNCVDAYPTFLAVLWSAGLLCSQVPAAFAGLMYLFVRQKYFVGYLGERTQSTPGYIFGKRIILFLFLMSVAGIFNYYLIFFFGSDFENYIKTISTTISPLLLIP

SMILES: CC(C)(C)Cc1ccc(-c2cnc(N)cn2)c(F)c1Oc1ncccn1 [Example 324, 5-(2-Fluoro-4-neopentyl-3-(pyrimidin-2-yloxy)phenyl)pyrazin-2-amine]
- IC50 [1]: 260 nM
- Ki (human FLAP): 73.8 nM

SMILES: Nc1cnc(-c2ccc(C3CCCCC3)c(Oc3nccc(N)n3)c2F)cn1 [Example 325, 2-(3-(5-Aminopyrazin-2-yl)-6-cyclohexyl-2-fluorophenoxy)pyrimidin-4-amine]
- IC50 [1]: 52.7 nM
- Ki (human FLAP): 9.5 nM

SMILES: CC(C)Cc1ccc(-c2cnc(N)cn2)c(F)c1Oc1nccc(N)n1 [Example 328, 2-(3-(5-Aminopyrazin-2-yl)-2-fluoro-6-isobutylphenoxy)pyrimidin-4-amine]
- IC50 [1]: 312 nM
- Ki (human FLAP): 113 nM

SMILES: NC(=O)c1ncc(Oc2c(C3CCC3)ccc(-c3cnc(N)cn3)c2F)cn1 [Example 329, 5-(3-(5-Aminopyrazin-2-yl)-6-cyclobutyl-2-fluorophenoxy)pyrimidine-2-carboxamide]
- IC50 [1]: 39 nM
- Ki (human FLAP): 9.7 nM

SMILES: Cc1csc2ncnc(Oc3c(C4CCC4)ccc(-c4cnc(N)cn4)c3F)c12 [Example 331, 5-(4-Cyclobutyl-2-fluoro-3-((5-methylthieno[2,3-d]pyrimidin-4-yl)oxy)phenyl)pyrazin-2-amine]
- IC50 [1]: 12.9 nM
- Ki (human FLAP): 3.7 nM

SMILES: Nc1cnc(-c2ccc(C3CCC3)c(OCCNc3ccnc(N)n3)c2F)cn1 [Example 332, N^4-(2-(3-(5-Aminopyrazin-2-yl)-6-cyclobutyl-2-fluoro-phenoxy)ethyl)pyrimidine-2,4-diamine]
- IC50 [1]: 450 nM
- Ki (human FLAP): 45.8 nM
